Measured values published in patent US9783556B2, “Kinase inhibitors” (RESPIVERT LIMITED, priority 2012, dated 2017).
pIC50: −log10 of the molar value.

What was measured:
PBMCs [1] = test: LPS-induced TNFα/IL-8 release in PBMC cells; assay type: cell-based; conditions: Homo sapiens, LPS-stimulated PBMCs, IL-8, read-out: IC50 Values for Inhibition of Cytokine Release PBMCs IL-8
Procedure: Peripheral blood mononuclear cells (PBMCs) from healthy subjects are separated from whole blood using a density gradient (Lymphoprep, Axis-Shield Healthcare). The PBMCs are seeded in 96 well plates and treated with compounds at the desired concentration for 2 hours before addition of 1 ng/mL LPS (Escherichia Coli 0111:B4 from Sigma Aldrich) for 24 hours under normal tissue culture conditions (37° C., 5% CO2). The supernatant is harvested for determination of IL-8 and TNFα concentrations by sandwich ELISA (Duo-set, R&D systems) and read on the fluorescence microplate reader (Varioskan® Flash, ThermoFisher Scientific). The concentration at 50% inhibition (IC50) of IL-8 and TNFα production is calculated from the dose response curve.

GSK 3α = GSK 3α (Homo sapiens (Human), UniProt P49840); test: GSK 3α enzyme inhibition (Z-LYTE FRET); assay type: biochemical; conditions: read-out: IC50 Values for Enzyme Inhibition GSK3α
GSK 3α, sequence (P49840 whole entry): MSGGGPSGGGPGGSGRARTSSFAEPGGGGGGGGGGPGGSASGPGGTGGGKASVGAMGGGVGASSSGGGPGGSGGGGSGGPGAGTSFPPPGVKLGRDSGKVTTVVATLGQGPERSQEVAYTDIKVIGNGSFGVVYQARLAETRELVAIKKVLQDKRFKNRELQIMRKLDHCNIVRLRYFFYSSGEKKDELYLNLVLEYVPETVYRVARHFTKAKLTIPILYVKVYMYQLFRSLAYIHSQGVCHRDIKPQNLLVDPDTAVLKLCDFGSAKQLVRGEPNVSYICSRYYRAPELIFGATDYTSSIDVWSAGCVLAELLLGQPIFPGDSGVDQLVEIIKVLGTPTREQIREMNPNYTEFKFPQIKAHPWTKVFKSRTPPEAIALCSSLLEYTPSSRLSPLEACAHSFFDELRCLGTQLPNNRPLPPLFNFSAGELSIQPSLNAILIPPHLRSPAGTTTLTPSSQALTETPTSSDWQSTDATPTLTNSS
Procedure: (§1) The enzyme inhibitory activities of compounds disclosed herein are determined by FRET using synthetic peptides labelled with both donor and acceptor fluorophores (Z-LYTE, Invitrogen Ltd., Paisley, UK).
The following two assay variants can be used for determination of GSK 3α inhibition.
The inhibitory activities of compounds of the invention against the GSK 3α enzyme isoform (Invitrogen), are evaluated by determining the level of activation/phosphorylation of the target peptide. The GSK3-α protein (500 ng/mL, 2.5 μL) is mixed with the test compound (2.5 μL at either 4 μg/mL, 0.4 μg/mL, 0.04 μg/mL, or 0.004 μg/mL) for 2 hr at RT. The FRET peptide (8 μM, 2.5 μL), which is a phosphorylation target for GSK3α, and ATP (40 μM, 2.5 μL) are then added to the enzyme/compound mixture and the resulting mixture incubated for 1 hr. Development reagent (protease, 5 μL) is added for 1 hr prior to detection in a fluorescence microplate reader (Varioskan® Flash, ThermoFisher Scientific).
(§2) In all cases, the site-specific protease cleaves non-phosphorylated peptide only and eliminates the FRET signal. Phosphorylation levels of each reaction are calculated using the ratio of coumarin emission (donor) over fluorescein emission (acceptor), for which high ratios indicate high phosphorylation and low ratios indicate low phosphorylation levels. The percentage inhibition of each reaction is calculated relative to non-inhibited control and the 50% inhibitory concentration (IC50 value) is then calculated from the concentration-response curve.
This method follows the same steps as Method 1 above, but utilises a shorter period of mixing of the test compound (105 minutes instead of 2 hours) with the GSK3-α protein.

Syk = Syk (Homo sapiens (Human), UniProt P43405); test: Syk enzyme inhibition (Z-LYTE FRET); assay type: biochemical
Procedure: as §1
(§3) The inhibitory activities of compounds of the invention against c-Src and Syk enzymes (Invitrogen), are evaluated in a similar fashion to that described hereinabove. The relevant enzyme (3000 ng/mL or 2000 ng/mL respectively, 2.5 μL) is incubated with the test compound (either 4 μg/mL, 0.4 μg/mL, 0.04 μg/mL, or 0.004 μg/mL, 2.5 μL each) for 2 hr at RT. The FRET peptides (8 μM, 2.5 μL), and appropriate ATP solutions (2.5 μL, 800 μM for c-Src, and 60 μM ATP for Syk) are then added to the enzymes/compound mixtures and incubated for 1 hr. Development reagent (protease, 5 μL) is added for 1 hr prior to detection in a fluorescence microplate reader (Varioskan® Flash, ThermoFisher Scientific).
as §2

c-Src = c-Src (Homo sapiens (Human), UniProt P12931); test: c-Src enzyme inhibition (Z-LYTE FRET); assay type: biochemical
c-Src, sequence (P12931 whole entry, looked up): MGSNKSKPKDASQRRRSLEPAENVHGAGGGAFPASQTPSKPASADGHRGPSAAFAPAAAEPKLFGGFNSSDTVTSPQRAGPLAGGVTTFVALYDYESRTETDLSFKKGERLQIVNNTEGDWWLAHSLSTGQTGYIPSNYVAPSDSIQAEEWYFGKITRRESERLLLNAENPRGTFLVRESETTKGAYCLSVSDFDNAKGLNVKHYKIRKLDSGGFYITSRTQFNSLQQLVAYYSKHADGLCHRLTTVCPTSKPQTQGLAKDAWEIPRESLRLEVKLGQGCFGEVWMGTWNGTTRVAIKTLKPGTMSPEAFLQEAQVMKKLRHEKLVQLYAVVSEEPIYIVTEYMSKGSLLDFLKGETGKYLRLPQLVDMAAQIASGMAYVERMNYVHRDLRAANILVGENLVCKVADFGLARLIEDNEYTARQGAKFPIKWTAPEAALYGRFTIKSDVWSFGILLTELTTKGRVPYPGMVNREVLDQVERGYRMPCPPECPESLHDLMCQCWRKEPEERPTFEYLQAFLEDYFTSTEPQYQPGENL
Procedure: as §1, §3, §2

HT29 cells = test: IL-1β-induced IL-8 release in HT29 cells; assay type: cell-based; conditions: Homo sapiens, HT-29, IL-1β-stimulated HT29 cells, read-out: IC50 Values for Inhibition of Cytokine Release HT29 cells IL-8
Procedure: HT29 cells, a human colon adenocarcinoma cell line, are plated in a 96 well plate (24 hrs) and pre-treated with compounds at the desired concentration for 2 hours before addition of 5 ng/mL of IL-1β (Abcam) for 24 hours. Supernatants are harvested for IL-8 quantification by Sandwich ELISA (Duo-set, R&D System). The IC50 is determined from the dose response curve.

PBMCs [2] = test: IL-2 and IFN gamma release in CD3/CD28 stimulated PBMC cells; assay type: cell-based; conditions: Homo sapiens, IL-2, read-out: IC50 Values for Inhibition of Cytokine Release PBMCs IL-2
Procedure: PBMCs from healthy subjects are separated from whole blood using a density gradient (Lymphoprep, Axis-Shield Healthcare). Cells are added to a 96 well plate pre-coated with a mixture of CD3/CD38 monoclonal antibodies (0.3 μg/mL eBioscience and 3 μg/mL BD Pharmingen respectively). Compound at the desired concentration is then added to the wells and the plate left for 3 days under normal tissue culture conditions. Supernatants are harvested and IL-2 and IFN gamma release determined by Sandwich ELISA (Duo-set, R&D System). The IC50 is determined from the dose response curve.

[3] = molecular target: p38 MAPKα isoform (MAPK14) (Homo sapiens (Human), UniProt Q16539); test: p38 MAPKα enzyme inhibition (Z-LYTE FRET); assay type: biochemical
p38 MAPKα isoform (MAPK14), sequence (Q16539 whole entry, canonical isoform): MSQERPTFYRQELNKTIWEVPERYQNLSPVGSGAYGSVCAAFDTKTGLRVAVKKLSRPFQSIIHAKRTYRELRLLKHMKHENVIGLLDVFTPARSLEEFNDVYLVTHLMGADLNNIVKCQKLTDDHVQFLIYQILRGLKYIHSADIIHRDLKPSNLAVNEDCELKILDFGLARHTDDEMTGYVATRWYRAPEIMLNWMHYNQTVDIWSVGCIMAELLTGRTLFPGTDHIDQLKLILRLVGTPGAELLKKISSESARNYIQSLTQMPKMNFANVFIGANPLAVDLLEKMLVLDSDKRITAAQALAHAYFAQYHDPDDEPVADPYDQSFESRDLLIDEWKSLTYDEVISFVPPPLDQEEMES
Procedure: as §1
The following two assay variants can be used for determination of p38 MAPKα inhibition.
The inhibitory activities of test compounds against the p38 MAPKα isoform (MAPK14: Invitrogen), are evaluated indirectly by determining the level of activation/phosphorylation of the down-stream molecule, MAPKAP-K2. The p38 MAPKα protein (80 ng/mL, 2.5 μL) is mixed with the test compound (2.5 μL of either 4 μg/mL, 0.4 μg/mL, 0.04 μg/mL or 0.004 μg/mL) for 2 hr at RT. […] The mixture is incubated for 1 hr at RT. Development reagent (protease, 5 μL) is added for 1 hr prior to detection in a fluorescence microplate reader (Varioskan® Flash, ThermoFisher Scientific).
This method follows the same steps as Method 1 above, but utilises a higher concentration of the p38 MAPKα protein (2.5 μL of 200 ng/mL protein instead of 2.5 μL of 80 ng/mL protein) for mixing with the test compound.
as §2

| Structure (SMILES) | pIC50 (PBMCs [1]) | pIC50 (GSK 3α) | pIC50 (Syk) | pIC50 (c-Src) | pIC50 (HT29 cells) | pIC50 (PBMCs [2]) | pIC50 [3] |
| --- | --- | --- | --- | --- | --- | --- | --- |
| Cc1ccc(-n2nc([Si](C)(C)C)cc2NC(=O)Nc2ccc(Oc3ccnc(Nc4cc(C)c5[nH]ncc5c4)n3)c(Cl)c2Cl)cc1 [Example 17, 1-(2,3-Dichloro-4-((2-((7-methyl-1H-indazol-5-yl)amino)pyrimidin-4-yl)oxy)phenyl)-3-(1-(p-tolyl)-3-(trimethylsilyl)-1H-pyrazol-5-yl)urea] | 8.10 | < 5.00 |  |  |  |  |  |
| COc1cc(Nc2nccc(Oc3ccc(NC(=O)Nc4cc([Si](C)(C)C)nn4-c4ccc(C)cc4)c4ccccc34)n2)cc(C(=O)NC[C@H](O)[C@@H](O)[C@H](O)[C@H](O)CO)c1 [Example 19, 3-Methoxy-N-((2S,3R,4R,5R)-2,3,4,5,6-pentahydroxyhexyl)-5-((4-((4-(3-(1-(p-tolyl)-3-(trimethylsilyl)-1H-pyrazol-5-yl)ureido)naphthalen-1-yl)oxy)pyrimidin-2-yl)amino)-benzamide] | 7.12 | 5.17 |  |  |  |  |  |
| Cc1ccc(-n2nc([Si](C)(C)C)cc2NC(=O)Nc2ccc(Oc3ccnc(Nc4ccc5c(c4)CNC5=O)n3)c3ccccc23)cc1 [Example 20, 1-(4-((2-((1-Oxoisoindolin-5-yl)amino)pyrimidin-4-yl)oxy)naphthalen-1-yl)-3-(1-(p-tolyl)-3-(trimethylsilyl)-1H-pyrazol-5-yl)urea] | 8.74 | 6.46 |  |  |  |  |  |
| Cc1ccc(-n2nc([Si](C)(C)C(C)(C)C)cc2NC(=O)Nc2ccc(Oc3ccnc(Nc4ccccc4)n3)c3ccccc23)cc1 [Example 5, 1-(3-(tert-Butyldimethylsilyl)-1-(p-tolyl)-1H-pyrazol-5-yl)-3-(4-((2-(phenylamino)pyrimidin-4-yl)oxy)naphthalen-1-yl)urea] | 6.95 | 5.30 |  |  |  |  |  |
| Cc1cc(Nc2nccc(Oc3ccc(NC(=O)Nc4cc([Si](C)(C)C)nn4-c4ccc(OCCN5CCOCC5)cc4)c4ccccc34)n2)cc2cn[nH]c12 [Example 15, 1-(4-((2-((7-Methyl-1H-indazol-5-yl)amino)pyrimidin-4-yl)oxy)naphthalen-1-yl)-3-(1-(4-(2-morpholinoethoxy)phenyl)-3-(trimethylsilyl)-1H-pyrazol-5-yl)urea] | 8.66 | 5.46 | 7.62 | 7.82 | 8.19 | 7.51 | 6.60 |
| COc1cc(Nc2nccc(Oc3ccc(NC(=O)Nc4cc([Si](C)(C)C)nn4-c4ccc(C)cc4)c4ccccc34)n2)cc(C(=O)NCCN2CCOCC2)c1 [Example 12, 3-Methoxy-N-(2-morpholinoethyl)-5-((4-((4-(3-(1-(p-tolyl)-3-(trimethylsilyl)-1H-pyrazol-5-yl)ureido)naphthalen-1-yl)oxy)pyrimidin-2-yl)amino)benzamide] | 9.05 | 5.72 | 7.77 | 8.00 |  | 7.55 | 6.85 |
| Cc1ccc(-n2nc([Si](C)(C)C)cc2NC(=O)Nc2ccc(Oc3ccnc(Nc4ccc5onc(N)c5c4)n3)c3ccccc23)cc1 [Example 8, 1-(4-((2-((3-Aminobenzo[d]isoxazol-5-yl)amino)pyrimidin-4-yl)oxy)naphthalen-1-yl)-3-(1-(p-tolyl)-3-(trimethylsilyl)-1H-pyrazol-5-yl)urea] | 8.41 | 5.67 | 6.57 | 7.43 |  |  | < 6.00 |
| CC[Si](CC)(CC)c1cc(NC(=O)Nc2ccc(Oc3ccnc(Nc4ccccc4)n3)c3ccccc23)n(-c2ccc(C)cc2)n1 [Example 4, 1-(4-((2-(phenylamino)pyrimidin-4-yl)oxy)naphthalen-1-yl)-3-(1-(p-tolyl)-3-(triethylsilyl)-1H-pyrazol-5-yl)urea] | 7.02 | < 5.00 |  |  |  |  |  |
| Cc1ccc(-n2nc([Si](C)(C)C)cc2NC(=O)Nc2ccc(Oc3ccnc(Nc4ccccn4)n3)c3ccccc23)cc1 [Example 14, 1-(4-((2-(pyridin-2-ylamino)pyrimidin-4-yl)oxy)naphthalen-1-yl)-3-(1-(p-tolyl)-3-(trimethylsilyl)-1H-pyrazol-5-yl)urea] | 7.44 | < 5.00 | < 6.00 | 6.44 |  |  |  |
| Cc1ccc(-n2nc([Si](C)(C)C)cc2NC(=O)Nc2ccc(Oc3ccnc(Nc4cccc(OCCN(C)C)c4)n3)c3ccccc23)cc1 [Example 11, 1-(4-((2-((3-(2-(Dimethylamino)ethoxy)phenyl)amino)pyrimidin-4-yl)oxy)naphthalen-1-yl)-3-(1-(p-tolyl)-3-(trimethylsilyl)-1H-pyrazol-5-yl)urea] | 8.85 | 6.16 |  |  |  |  |  |
| COc1cc(Nc2nccc(Oc3ccc(NC(=O)Nc4cc([Si](C)(C)C)nn4-c4ccc(C)cc4)c(Cl)c3Cl)n2)cc(OCCN2CCOCC2)c1 [Example 18, 1-(2,3-Dichloro-4-((2-((3-methoxy-5-(2-morpholinoethoxy)phenyl)amino)pyrimidin-4-yl)oxy)phenyl)-3-(1-(p-tolyl)-3-(trimethylsilyl)-1H-pyrazol-5-yl)urea] | 8.57 | < 5.00 | 7.23 | 7.39 |  |  | < 6.00 |
| CC[Si](C)(C)c1cc(NC(=O)Nc2ccc(Oc3ccnc(Nc4ccccc4)n3)c3ccccc23)n(-c2ccc(C)cc2)n1 [Example 16, 1-(3-(Ethyldimethylsilyl)-1-(p-tolyl)-1H-pyrazol-5-yl)-3-(4-((2-(phenylamino)pyrimidin-4-yl)oxy)naphthalen-1-yl)urea] | 7.83 | < 5.00 | < 6.00 | 6.94 |  |  |  |
